Assay results as given in US20060252807A1, “Novel ortho-terphenyl inhibitors of p38 kinase and methods of treating inflammatory disorders” (Kalypsys, Inc., priority 2005, published 2006).

Molecular target: T1, active p38 alpha enzyme (Upstate Biotechnology) (Homo sapiens, UniProt Q16539)
T1 construct: purchased Upstate Biotechnology
Test: p38α biochemical assay (ATP turnover, luminescent detection, Cambrex PKlight)
Conditions: p38α biochemical assay, Table 1 Biological Activity
Description: The p38α biochemical assay employed is based on measurement of total ATP turnover following enzyme incubation with substrate in the presence of ATP with the use of a luminescent detection reagent (Cambrex PKlight). The assays were performed in 1536-well white opaque plates.
The final volume was 7.5005 μL as prepared prepared from the addition of 5 ul of kinase reaction (p38 alpah+MapkapK2+ATP) with 0.0005 μL compound dissolved in DMSO, and 2.5 ul of the detection reagent. Assay buffer contains the following reagents to give final concentration in the assay: 200 mM Tris, 100 mM MgCl2, 1.5 mM EGTA, 4 mM CaCl2, 20 mM MOPS, 1 mM EDTA, 1% glycerol, 0.1% B-Mecaptoethanol, and 1 mg/ml BSA. Test compounds are pinned using proprietary pintool technology (Kalypsys, Inc) and delivered as […] amounts into the 5 ul mixture of active p38 alpha enzyme (Upstate Biotechnology) and MapkapK2 (Upstate Biotechnology) whole protein as a substrate for phosphorylation in the presence of 1.4 uM final concentration ATP. Reactions are incubated at 30C for 2 hours and detection reagent is added in 2.5 ul/well amounts. Assay is read using a Perkin Elmer Viewlux.

T1 sequence (Q16539 whole entry): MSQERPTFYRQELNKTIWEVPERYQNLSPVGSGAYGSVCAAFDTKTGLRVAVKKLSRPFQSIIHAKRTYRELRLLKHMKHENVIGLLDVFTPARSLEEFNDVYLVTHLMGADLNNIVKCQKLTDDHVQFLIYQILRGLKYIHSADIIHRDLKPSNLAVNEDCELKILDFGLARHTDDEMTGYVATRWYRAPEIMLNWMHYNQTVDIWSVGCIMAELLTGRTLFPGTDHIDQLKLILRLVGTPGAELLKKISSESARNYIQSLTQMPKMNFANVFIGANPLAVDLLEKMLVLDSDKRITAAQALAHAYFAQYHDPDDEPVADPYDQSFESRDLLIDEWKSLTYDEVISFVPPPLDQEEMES

Structure (SMILES) | IC50
Cc1cc(C(=O)NCc2nc(-c3ccc(F)cc3)c(-c3nc(C(=O)NC(C)C)cs3)o2)n[nH]1 [Example 116] | ≤ 1000 nM
CC(C)NC(=O)c1csc(-c2oc(CNC(=O)c3cn(C)cn3)nc2-c2ccc(F)cc2)n1 [Example 117] | > 1000 nM
CC(C)NC(=O)c1csc(-c2oc(CNC(=O)C3CCCCC3)nc2-c2ccc(F)cc2)n1 [Example 118] | ≤ 1000 nM
CC(C)NC(=O)c1csc(-c2oc(CNC(=O)c3cscn3)nc2-c2ccc(F)cc2)n1 [Example 119] | ≤ 1000 nM
Cc1cccc(C(=O)NCc2nc(-c3ccc(F)cc3)c(-c3nc(C(=O)NC(C)C)cs3)o2)c1 [Example 121] | > 1000 nM
Cc1ccccc1C(=O)NCc1nc(-c2ccc(F)cc2)c(-c2nc(C(=O)NC(C)C)cs2)o1 [Example 122] | > 1000 nM
Cc1ccc(C(=O)NCc2nc(-c3ccc(F)cc3)c(-c3nc(C(=O)NC(C)C)cs3)o2)cc1 [Example 123] | > 1000 nM
CC(C)NC(=O)c1csc(-c2oc(CNC(=O)c3ccccc3O)nc2-c2ccc(F)cc2)n1 [Example 125] | > 1000 nM
CC(C)NC(=O)c1csc(-c2oc(CNC(=O)c3ccc(F)cc3)nc2-c2ccc(F)cc2)n1 [Example 126] | > 1000 nM
CCCCCCCC(=O)NCc1nc(-c2ccc(F)cc2)c(-c2nc(C(=O)NC(C)C)cs2)o1 [Example 128] | ≤ 1000 nM
CC(C)NC(=O)c1csc(-c2oc(CNC(=O)c3cccc(C#N)c3)nc2-c2ccc(F)cc2)n1 [Example 130] | ≤ 1000 nM
CC(C)NC(=O)c1csc(-c2oc(CNC(=O)c3ccc(C=O)cc3)nc2-c2ccc(F)cc2)n1 [Example 133] | ≤ 1000 nM
Cc1ccc(C(=O)NCc2nc(-c3ccc(F)cc3)c(-c3nc(C(=O)NC(C)C)cs3)o2)c(C)c1 [Example 134] | > 1000 nM
Cc1cccc(C(=O)NCc2nc(-c3ccc(F)cc3)c(-c3nc(C(=O)NC(C)C)cs3)o2)c1C [Example 136] | > 1000 nM
Cc1cc(C)cc(C(=O)NCc2nc(-c3ccc(F)cc3)c(-c3nc(C(=O)NC(C)C)cs3)o2)c1 [Example 138] | > 1000 nM
Cc1ccc(C(=O)NCc2nc(-c3ccc(F)cc3)c(-c3nc(C(=O)NC(C)C)cs3)o2)cc1C [Example 139] | > 1000 nM

Further lines, results first:

IC50 | Structure (SMILES)
≤ 1000 nM | CC(C)NC(=O)c1csc(-c2oc(CNC(=O)C(O)CCl)nc2-c2ccc(F)cc2)n1 (stereo not drawn) [Example 115]
≤ 1000 nM | CCOC(=O)CC(=O)NCc1nc(-c2ccc(F)cc2)c(-c2nc(C(=O)NC(C)C)cs2)o1 [Example 120]
≤ 1000 nM | CC(C)NC(=O)c1csc(-c2oc(CNC(=O)c3cccc(O)c3)nc2-c2ccc(F)cc2)n1 [Example 124]
> 1000 nM | CC(C)NC(=O)c1csc(-c2oc(CNC(=O)c3cccc(F)c3)nc2-c2ccc(F)cc2)n1 [Example 127]
≤ 1000 nM | CC(C)NC(=O)c1csc(-c2oc(CNC(=O)c3ccc(C#N)cc3)nc2-c2ccc(F)cc2)n1 [Example 129]
≤ 1000 nM | CC(C)NC(=O)c1csc(-c2oc(CNC(=O)/C=C/c3ccccc3)nc2-c2ccc(F)cc2)n1 [Example 131]
> 1000 nM | CC(C)NC(=O)c1csc(-c2oc(CNC(=O)c3ccccc3C=O)nc2-c2ccc(F)cc2)n1 [Example 132]
> 1000 nM | Cc1ccccc1CC(=O)NCc1nc(-c2ccc(F)cc2)c(-c2nc(C(=O)NC(C)C)cs2)o1 [Example 135]
> 1000 nM | Cc1ccc(C)c(C(=O)NCc2nc(-c3ccc(F)cc3)c(-c3nc(C(=O)NC(C)C)cs3)o2)c1 [Example 137]
> 1000 nM | CCc1ccc(C(=O)NCc2nc(-c3ccc(F)cc3)c(-c3nc(C(=O)NC(C)C)cs3)o2)cc1 [Example 140]
> 1000 nM | COc1ccc(C(=O)NCc2nc(-c3ccc(F)cc3)c(-c3nc(C(=O)NC(C)C)cs3)o2)cc1 [Example 141]
> 1000 nM | Cc1cccc(C(=O)NCc2nc(-c3ccc(F)cc3)c(-c3nc(C(=O)NC(C)C)cs3)o2)c1O [Example 142]
≤ 1000 nM | CC(C)NC(=O)c1csc(-c2oc(CNC(=O)Cc3ccccc3O)nc2-c2ccc(F)cc2)n1 [Example 143]
≤ 1000 nM | CC(C)NC(=O)c1csc(-c2oc(CNC(=O)Cc3cccc(O)c3)nc2-c2ccc(F)cc2)n1 [Example 144]
